# Test results: publication PMC10818749, “Toxicity Studies of Cardiac-Targeting Peptide Reveal a Robust Safety Profile” (Pharmaceutics, 2024)
# Entries after “also recorded” stand apart in the source; their conditions may differ. Ends that are not written are not given here.
# Tested on: seventy-eight protein channels
# Assay: Eurofins SAFETYscan E/IC50 ELECT (all seventy-eight assays)
# Details: CTP 0.1 µM to 30 µM
# Description: Eurofins Toxicology Study: In vitro toxicology studies were performed by Eurofins Scientific through both their Ion Channel Profiler and Cardiac Profiler Panel and their DiscoverX’s SAFETYscan E/IC50 […] service. Increasing concentrations of CTP (0.1 µM to 30 µM) were tested against various ion channels and a total of seventy-eight assays performed utilizing various output reads, including GPCR cAMP modulation assays, calcium mobilization assays, nuclear hormone receptor assays, KINOMEscan binding assays, ion channel assays, transporter assays, and enzymatic assays. All methods described below were performed, described, and reported by Eurofins Scientific in their study report (Supplementary Methods S1 and S2).
# GPCR cAMP modulation assays, calcium mobilization assays, nuclear hormone receptor assays, KINOMEscan binding assays, ion channel assays, transporter assays, and enzymatic assays were performed by Eurofins under GLP standards.
# DiscoverX was contracted by Maliha Zahid at Mayo Clinic to profile 1 compound(s) with the SAFETYscan E/IC50 ELECT service. Details are
# Product: SAFETYscan E/IC50 ELECT
# ADOR A2A- Calci um Flux-Agonist DRD2S-cAMP-Agonist HTR3A-Ion Channel-Blocker
# ADORA2A-Calcium Flux-Antagonist DRD2S-cAMP-Antagonist HTR3A-Ion Channel-Opener
# ADRA1A-Calcium Flux-Agonist EDNRA-Calcium Flux-Agonist KvLQT1/minK-Ion Channel-Blocker […]
sequence,measurement,value
APWHLSSQYSRT [CTP],significant interactions across all seventy-eight assays,No significant activation or inhibition of any of seventy-eight protein channels was observed other than OPRM1 and COX2 at the highest tested concentration; also recorded: only two showed significant interactions
